Results reported in US8247211B2, “Glycopeptide antibiotics” (American Cyanamid Company, priority 2001, dated 2012).

Assays:
[1] = tested on: Staphylococcus aureus-SMITH (GC 4543); assay: Acute lethal infection in mice (ED50); format: in vivo; conditions: female CD-1 mice, intraperitoneal challenge, intravenous dose 30 min. after infection, 7 day survival ratios
Summary of the method: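 Bacteria suspended in Trypticase Soy Broth or hog gastric mucin are injected intraperitoneally into female CD-1 mice at a dose killing untreated animals within 24-48 hr. Thirty minutes later, test agent is administered intravenously. Survival at day 7 is scored.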

[2] = Anatomic pathology (heart and kidney histopathology) in mice; format: in vivo, CD-1 mice; conditions: 20 mg/kg intravenously daily for 9 days, microscopic histopathology on day 10
Protocol: 20-day-old CD-1 mice were divided into a vehicle control group (5 mice) and a treatment group (5 mice). Samples of glycopeptide antibiotics were administered at 20 mg/kg intravenously daily for 9 days.
Samples of tissues from necropsied mice were formalin-fixed, paraffin-embedded, sectioned, stained with hematoxylin and eosin, and examined microscopically. Histopathologic findings were recorded. These findings were subjectively graded on a scale corresponding to slight, mild, moderate, marked and severe as compared to untreated controls.

Structure (SMILES)	median effective dose (ED50), Staphylococcus aureus-SMITH (GC 4543) [1]	Anatomical Pathology (Day 10), Heart [2]	Anatomical Pathology (Day 10), Kidney [2]
CN=C1N(C)CC(C(O)C2NC(=O)C(Cc3ccc(OC4OC(CO)C(OC5OC(CO)C(O)C(O)C5O)C(O)C4O)cc3)NC(=O)C(C(C)c3ccccc3)NC(=O)CNC(=O)C(CO)NC(=O)C(C(O)C3CN(C)C(=NC)N3C3OC(CO)C(O)C(O)C3O)NC2=O)N1C (stereo not drawn) [Example 64, Cyclo[glycyl-β-methylphenylalanyl-O-(4-O-hexopyranosylhexopyranosyl)tyrosyl-3-(1,3-dimethyl-2-(methylimino)imidazolidin-4-yl)seryl-3-[3-hexopyranosyl-1-methyl-2-(methylimino)imidazolidin-4-yl]-serylseryl]]	>8	0	0
CC(c1ccccc1)C1NC(=O)CNC(=O)C(CO)NC(=O)C(C(O)C2CN(Cc3ccc(C(=O)O)cc3)C(=N)N2C2OC(CO)C(O)C(O)C2O)NC(=O)C(C(O)C2CNC(=N)N2)NC(=O)C(Cc2ccc(OC3OC(CO)C(OC4OC(CO)C(O)C(O)C4O)C(O)C3O)cc2)NC1=O (stereo not drawn) [Example 69, Cyclo[glycyl-β-methylphenylalanyl-O-(4-O-hexopyranosylhexopyranosyl)tyrosyl-3-(2-iminoimidazolidin-4-yl)seryl-3-[1-(4-carboxybenzyl)-2-imino-3-hexopyranosylimidazolidin-4-yl]-serylseryl]]	>8	0	0
CCCCCCCN1CC(C(O)C2NC(=O)C(C(O)C3CNC(=N)N3)NC(=O)C(Cc3ccc(OC4OC(CO)C(OC5OC(CO)C(O)C(O)C5O)C(O)C4O)cc3)NC(=O)C(C(C)c3ccccc3)NC(=O)CNC(=O)C(CO)NC2=O)N(C2OC(CO)C(O)C(O)C2O)C1=N (stereo not drawn) [Example 71, Cyclo[glycyl-β-methylphenylalanyl-O-(4-O-hexopyranosylhexopyranosyl]tyrosyl-3-(2-iminoimidazolidin-4-yl)seryl-3-[1-heptyl-3-hexopyranosyl-2-iminoimidazolidin-4-yl]serylseryl]]	>8	0	0
